According to patent publication US5420128A, “Pyrimidine derivatives, method of manufacturing the same, and androgen inhibitor” (Otsuka Pharmaceutical Co., Ltd., priority 1990, dated 1995):

Columns and labels:
[1] = target: T1, rat prostate androgen receptor (Rattus norvegicus, UniProt P15207); experiment: inhibitory activity on binding of ^3 H-mibolerone on rat prostate androgen receptor; settings: ^3 H-mibolerone 1 nM, triamcinolone acetonide 5 μM, rat ventral prostate cytosol, 20 hours at 0° C.; read-out: Inhibitory activity on mibolerone specific binding [IC50 (M)]
T1 construct: the supernatant was obtained as cytoplasm fraction; from tissue; host or cells: cytosol (105000×g supernatant) of rat ventral prostate, 24 hours after castration
T1 sequence (P15207 1-902): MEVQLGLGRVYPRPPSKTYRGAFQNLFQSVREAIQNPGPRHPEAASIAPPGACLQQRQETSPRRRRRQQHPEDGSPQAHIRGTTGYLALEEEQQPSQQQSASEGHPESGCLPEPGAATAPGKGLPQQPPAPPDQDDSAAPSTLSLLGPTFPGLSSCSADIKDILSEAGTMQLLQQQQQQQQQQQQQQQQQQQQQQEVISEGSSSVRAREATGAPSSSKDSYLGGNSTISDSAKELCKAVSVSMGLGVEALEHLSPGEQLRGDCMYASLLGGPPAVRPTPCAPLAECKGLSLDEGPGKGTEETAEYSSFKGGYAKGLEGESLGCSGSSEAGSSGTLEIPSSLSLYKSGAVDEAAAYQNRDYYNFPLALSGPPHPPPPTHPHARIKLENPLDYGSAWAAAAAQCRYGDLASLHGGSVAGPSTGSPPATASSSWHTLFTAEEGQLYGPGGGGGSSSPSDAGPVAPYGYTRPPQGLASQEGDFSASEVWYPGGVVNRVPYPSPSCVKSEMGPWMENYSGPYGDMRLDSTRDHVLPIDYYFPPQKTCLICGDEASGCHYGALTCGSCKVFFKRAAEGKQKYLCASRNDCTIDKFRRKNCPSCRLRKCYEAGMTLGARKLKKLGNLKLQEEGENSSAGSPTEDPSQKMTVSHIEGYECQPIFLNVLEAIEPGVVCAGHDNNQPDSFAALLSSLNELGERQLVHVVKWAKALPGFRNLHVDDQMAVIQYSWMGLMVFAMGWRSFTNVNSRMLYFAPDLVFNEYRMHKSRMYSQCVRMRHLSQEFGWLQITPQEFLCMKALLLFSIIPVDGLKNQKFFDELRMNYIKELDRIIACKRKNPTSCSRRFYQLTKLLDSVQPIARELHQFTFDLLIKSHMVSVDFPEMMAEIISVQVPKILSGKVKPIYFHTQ
Experimental: B. Measurement of inhibitory activity on binding of ^3 H-mibolerone on rat prostate androgen receptor
The rat was sacrificed 24 hours after castration, and the ventral lobe of prostate was removed, and was gently homogenized, in ice-cooling water bath, at first by using Polytron and then using Potter type homogenizer, in three-fold amount of buffer solution A (1.5 mM EDTA, 2 mM dithiothreitol, 10 mM molybdate sodium, 10 % by volume of glycerol, 10 mM NaF, 25 mM phosphate sodium, pH 7.2). The obtained homogenate was filtrated through double gauze, and centrifuged at 105000×g for 60 minutes at 4° C., and the supernatant was obtained as cytoplasm fraction.
(2) Measurement of specific binding of ^3 H-mibolerone on prostate cytoplasm androgen receptor
To the cytoplasm fraction obtained in (1), ^3 H-mibolerone (87.0 Ci/mmol) was added, so that a final concentration is adjusted to 1 nM, and at the same time, in order to inhibit binding of ^3 H-mibolerone to progestin receptor, triamsinolone acetonide was added to a final concentration of 5 μM, and the final volume was adjusted to 0.4 ml with buffer solution A, and the reaction mixture was incubated for 20 hours at 0° C. After incubation, 0.5 ml of 60% hydroxylapatite slurry (washed and equilibrate with a buffer solution B: 10 mM NaH2 P04, 20 mM tris-hydrochloric acid, pH 7.2) was added, and incubated for 10 minutes at 0° C., the solution was transferred onto a glass fiber filter, and washed five times with 5 ml portions of buffer solution B containing 0.1% (weight/volume) of Triton X-100, to remove free ^3 H-mibolerone. This glass fiber was transferred into vial, and 10 ml of aquasol-2 was added, and the radioactivity was measured, and the total binding amount of ^3 H-mibolerone on prostate cytoplasm androgen receptor was determined.
The nonspecific binding amount was determined similarly by adding an unlabeled 5α-DHT in the reaction solution to a final concentration of 1 μM. The difference between the total binding amount and nonspecific binding amount was determined as the specific binding amount on the androgen receptor.
(3) Inhibitory activity of sample compounds on ^3 H-mibolerone specific binding
The compounds obtained in the experiments were added simultaneously with ^3 H-mibolerone at different concentrations to incubate same as in (2), and the specific binding amount of 3H-mibolerone on androgen receptor was determined. Comparing this value with the value obtained in (2), the IC50 value of inhibitory activity of the compounds on ^3 H-mibolerone specific binding was determined.

[2] = target: T1, rat prostate androgen receptor; experiment: inhibitory activity on binding of ^3 H-5α-DHT on rat prostate androgen receptor; settings: ^3 H-5α-DHT 1 nM, rat ventral prostate cytosol, about 20 hours at 0° C.; read-out: Inhibitory activity on 5α-DHT specific binding [IC50 (M)]
Experimental: The compounds obtained in Examples were evaluated in the following pharmacological studies A and B. The pharmacological study A was conducted in conformity with J.B.C. 256 (15) 7998-8005, 1981.
A. Measurement of inhibitory activity on binding of ^3 H-5α-[…] (^3 H-5α,-DHT) on rat prostate androgen receptor
(1) Preparation of cytosol from rat prostate
The rat was sacrificed 24 hours after castration, and the ventral lobe of prostate was removed, and was gently homogenized, on ice water bath, by using a Potter homogenizer in three-fold amount of 0.25M sucrose-TME buffer solution (50 mM tris-HCl (pH 7.4), 0.5 mM mercaptoethanol, and 0.1 mM EDTA-2 Na). The homogenate was filtrated through double gauze, and ultracentrifuged at 105000×g for 60 minutes, and the supernatant was used as androgen receptor.
(2) Measurement of ^3 H-5α-DHT specific binding on prostate cytoplasmic androgen receptor
To the cytosol obtained in (1), ^3 H-5α-DHT (47.8 Ci/mmol) was added, so that a final concentration is adjusted to 1 nM, and 0.25 M sucrose-TME buffer was added to adjust the final volume to 0.5 ml, and the reaction mixture was incubated for about 20 hours at 0° C. An ammonium sulfate solution dissolved in 0.25 M sucrose-TME buffer was mixed to be 35% saturation, and after standing for 90 minutes at 0° C., the mixture was centrifuged at 10000×g for 10 minutes at 4° C., and the precipitate was obtained.
This precipitate was suspended again in 0.8 ml of the above buffer solution, and furthermore in order to remove the free type ^3 H-5α-DHT, 0.2 ml of dextran-carbon powder suspension (4% activated carbon, 0.1% dextran T-70, and 0.1% gelatin dissolved in the above buffer solution) was added and mixed, and the mixture was let stand for 10 minutes at 0° C. At 4° C., in succession, the mixture was centrifuged at 3000×g for 10 minutes, and 0.5 ml of the supernatant was transferred into a vial, and 10 ml of aquasol-2 was added, and radioactivity was measured, and the total binding amount of ^3 H-5α-DHT on the prostate cytoplasma androgen receptor was determined. The nonspecific binding amount was similarly determined by adding a non-radioactive ligand (5α-DHT) to the reaction solution to a final concentration of 1 μM. The difference between the total binding amount and nonspecific binding amount was determined as the specific binding amount on the androgen receptor.
(3) Inhibitory activity of sample compounds on ^3 H-5α-DHT specific binding
The compounds obtained in Examples were incubated with ^3 H-5α-DHT at several concentrations same as in (2), and the specific binding amount of ^3 H-5α-DHT on the androgen receptor was determined. Comparing the obtained value with the value of (2), the IC50 value of the test compounds on ^3 H-5α-DHT specific binding was determined. The following compounds were used as the positive controls.

| SMILES | IC50 [1] [M] | IC50 [2] [M] |
| --- | --- | --- |
| COc1cccc(-c2cnc3c(-c4ccc(Sc5ccccc5)cc4)cnn3c2O)c1 [Example 54, 7-Hydroxy-6-(3-methoxyphenyl)-3-(4-phenylthiophenyl)pyrazolo[1,5-a]pyrimidine] | 7.6e-07 |  |
| Oc1c(-c2ccc(F)cc2)cnc2c(-c3ccc(Sc4ccccc4)cc3)cnn12 [Example 55, 7-Hydroxy, 6-(4-fluorophenyl)-3-(4-phenylthiophenyl)pyrazolo[1,5-a]pyrimidine] | 6.6e-08 |  |
| Oc1c(-c2cccc(F)c2)cnc2c(-c3ccc(Sc4ccccc4)cc3)cnn12 [Example 56, 7-Hydroxy-6-(3-fluorophepyl)-3-(4-phenylthiophenyl)pyrazolo[1,5-a]pyrimidine] | 1.2e-07 |  |
| Oc1c(-c2ccccc2F)cnc2c(-c3ccc(Sc4ccccc4)cc3)cnn12 [Example 57, 7-Hydroxy-6-(2-fluorophenyl)-3-(4-phenylthiophenyl)pyrazolo[1,5-a]pyrimidine] | 1.45e-07 |  |
| CC(=O)OCCc1cnc2c(-c3ccc(Sc4ccccc4)cc3)cnn2c1O [Example 59, 6-(2-Acetoxyethyl)-7-hydroxy-3-(4-phenylthiophenyl)pyrazolo[1,5-a]pyrimidine] | 1.65e-07 |  |
| OCCc1cnc2c(-c3ccc(Sc4ccccc4)cc3)cnn2c1O [Example 60, 7-Hydroxy-6-(2-hydroxyethyl)-3-(4-phenylthiophenyl)pyrazolo[1,5-a]pyrimidine] | 3.9e-08 |  |
| Oc1ccccc1Cc1cnc2c(-c3ccc(Sc4ccccc4)cc3)cnn2c1O [Example 61, 7-Hydroxy-6-(2-hydroxyphenylmethyl)-3-(4-phenylthiophenyl)pyrazolo[1,5-a]pyrimidine] | 1.6e-07 |  |
| Oc1cccc(Cc2cnc3c(-c4ccc(Sc5ccccc5)cc4)cnn3c2O)c1 [Example 62, 7-Hydroxy-6-(3-hydroxyphenylmethyl)-3-(4-phenylthiophenyl)pyrazolo[1,5-a]pyrimidine] | 1.2e-07 |  |
| Oc1ccc(Cc2cnc3c(-c4ccc(Sc5ccccc5)cc4)cnn3c2O)cc1 [Example 63, 7-Hydroxy-6-(4-hydroxyphenylmethyl)-3-(4-phenylthiophenyl)pyrazolo[1,5-a]pyrimidine] | > 5e-06 |  |
| Oc1ccccc1-c1cnc2c(-c3ccc(Sc4ccccc4)cc3)cnn2c1O [Example 64, 7-Hydroxy-6-(2-hydroxyphenyl)-3-(4-phenylthiophenyl)pyrazolo[1,5-a]pyrimidine] | 7.4e-07 |  |
| Oc1cccc(-c2cnc3c(-c4ccc(Sc5ccccc5)cc4)cnn3c2O)c1 [Example 65, 7-Hydroxy-6-(3-hydroxyphenyl)-3-(4-phenylthiophenyl)pyrazolo[1,5-a]pyrimidine] | 1.4e-07 |  |
| Oc1ccc(-c2cnc3c(-c4ccc(Sc5ccccc5)cc4)cnn3c2O)cc1 [Example 66, 7-Hydroxy-6-(4-hydroxyphenyl)-3-(4-phenylthiophenyl)pyrazolo[1,5-a]pyrimidine] | 1.6e-07 |  |
| CC(=O)c1cnc2c(-c3ccc(Sc4ccccc4)cc3)cnn2c1O [Example 67, 7-Hydroxy-6-acetyl-3-(4-phenylthiophenyl)pyrazolo[1,5-a]pyrimidine] | 3.4e-08 |  |
| O=C(c1ccccc1)c1cnc2c(-c3ccc(Sc4ccccc4)cc3)cnn2c1O [Example 68, 7-Hydroxy-6-benzoyl-3-(4-phenylthiophenyl)pyrazolo[1,5-a]pyrimidine] | 1.3e-06 |  |
| O=C(c1cnc2c(-c3ccc(Sc4ccccc4)cc3)cnn2c1O)C(F)(F)F [Example 69, 7-Hydroxy-6-trifluoroacetyl-3-(4-phenylthiophenyl)pyrazolo[1,5-a]pyrimidine] | 8.8e-07 |  |
| CC(O)c1cnc2c(-c3ccc(Sc4ccccc4)cc3)cnn2c1O (stereo not shown) [Example 70, 7-Hydroxy-6-(1-hydroxyethyl)-3-(4-phenylthiophenyl)pyrazolo[1,5-a]pyrimidine] | 1.55e-07 |  |
| Oc1c(C(O)c2ccccc2)cnc2c(-c3ccc(Sc4ccccc4)cc3)cnn12 (stereo not drawn) [Example 71, 7-Hydroxy-6-(α-hydroxybenzyl)-3-(4-phenylthiophenyl)pyrazolo[1,5-a]pyrimidine] | 4.6e-07 |  |
| Oc1c(C(O)C(F)(F)F)cnc2c(-c3ccc(Sc4ccccc4)cc3)cnn12 (stereo not shown) [Example 72, 7-Hydroxy-6-(1-hydroxy-2,2,2-trifluoroethyl)-3-(4-phenylthiophenyl)pyrazolo[1,5-a]pyrimidine] | 1.6e-07 |  |
| COc1ccc(-c2cnc3c(-c4ccc(Sc5ccccc5)cc4)cnn3c2O)cc1Br [Example 73, 6-(3-bromo-4-methoxyphenyl)-7-hydroxy-3-(4-phenylthiophenyl)pyrazolo[1,5-a]pyrimidine] | > 5e-06 |  |
| Cc1cc(-c2cnn3c(O)ccnc23)ccc1Sc1ccccc1 [Example 76, 7-Hydroxy-3-(3-methyl-4-phenylthiophenyl)pyrazolo[1,5-a]pyrimidine] | 2.3e-08 |  |
| Cc1cc(-c2cnn3c(O)ncnc23)ccc1SCc1ccccc1 [Example 79, 8-(4-Benzylthio-3-methylphenyl)-4-hydroxypyrazolo[1,5-a]-1,3,5-triazine] |  | 1.1e-07 |
| Cc1cc(-c2cnn3c(O)ncnc23)ccc1Sc1ccccc1 [Example 81, 4-Hydroxy-8-(3-methyl-4-phenylthiophenyl)pyrazolo[1,5-a]-1,3,5-triazine] |  | 1.5e-07 |
| Cc1ccccc1Sc1ccc(-c2cnn3c(O)ncnc23)cc1C [Example 82, 4-Hydroxy-8-[3-methyl-4-(2-methylphenylthio)phenyl]pyrazolo[1,5-a]-1,3,5-triazine] |  | 1.1e-06 |
| Cc1cccc(Sc2ccc(-c3cnn4c(O)ncnc34)cc2C)c1 [Example 83, 4-Hydroxy-8-[3-methyl-4-(3-methylphenylthio)phenyl]pyrazolo[1,5-a]-1,3,5-triazine] |  | 1.3e-07 |
| Cc1ccc(Sc2ccc(-c3cnn4c(O)ncnc34)cc2C)cc1 [Example 84, 4-Hydroxy-8-[3-methyl-4-(4-methylphenylthio)phenyl]pyrazolo[1,5-a]-1,3,5-triazine] |  | 1.5e-06 |
| COc1cccc(Sc2ccc(-c3cnn4c(O)ncnc34)cc2C)c1 [Example 85, 4-Hydroxy-8-[4-(3-methoxyphenylthio)-3-methyl]phenylpyrazolo[1,5-a]-1,3,5-triazine] |  | 1.6e-07 |
| COc1ccc(Sc2ccc(-c3cnn4c(O)ncnc34)cc2C)cc1 [Example 86, 4-Hydroxy-8-[4-(4-methoxyphenylthio)-3-methyl]phenylpyrazolo[1,5-a]-1,3,5-triazine] |  | 1.2e-07 |
| Cc1ccc(NS(=O)(=O)c2ccc(-c3cnn4c(O)ncnc34)cc2)cc1 [Example 88, 4-Hydroxy-8-[4-(4-methylphenylaminosulfonyl)phenyl]pyrazolo[1,5-a]-1,3,5-triazine] |  | < 5e-06 |
